In US20090221642A1, “MUSCARINIC RECEPTOR AGONISTS, COMPOSITIONS, METHODS OF TREATMENT THEREOF, AND PROCESSES FOR PREPARATION THEREOF-176” (AstraZeneca AB, priority 2008, published 2009):

Target: T1, cloned human M2 receptor (human Muscarinic receptor subtype 2) (Homo sapiens, UniProt P08172)
T1 construct: purchased Perkin-Elmer RBHM2M; host or cells: Chinese hamster ovary cells (CHO) membranes
T1 sequence (P08172 1-466): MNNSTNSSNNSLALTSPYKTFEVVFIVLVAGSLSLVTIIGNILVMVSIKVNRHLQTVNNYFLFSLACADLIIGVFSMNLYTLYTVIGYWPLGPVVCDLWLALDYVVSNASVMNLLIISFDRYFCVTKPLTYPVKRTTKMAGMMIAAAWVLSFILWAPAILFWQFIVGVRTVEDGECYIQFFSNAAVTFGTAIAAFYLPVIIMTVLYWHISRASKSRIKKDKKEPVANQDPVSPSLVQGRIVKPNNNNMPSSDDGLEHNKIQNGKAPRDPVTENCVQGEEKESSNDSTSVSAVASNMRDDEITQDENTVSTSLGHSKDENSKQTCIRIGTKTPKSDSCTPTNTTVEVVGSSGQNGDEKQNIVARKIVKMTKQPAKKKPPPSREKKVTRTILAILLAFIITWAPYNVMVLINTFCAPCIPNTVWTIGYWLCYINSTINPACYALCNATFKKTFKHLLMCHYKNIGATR
Assay: hM2 receptor GTPγS binding
Assay type: biochemical
Conditions: CHO cell membranes expressing hM2; [35S]GTPγS binding; read-out: hM2 EC50
Protocol: hM2 Receptor GTPγS Binding
Membranes produced from Chinese hamster ovary cells (CHO) expressing the cloned human M2 receptor (human Muscarinic receptor subtype 2, gene bank access NM_000739), are obtained from Perkin-Elmer (RBHM2M). The membranes are thawed at 37° C., passed 3 times through a 23-gauge blunt-end needle, diluted in the GTPγS binding buffer (50 mM Hepes, 20 mM NaOH, 100 mM NaCl, 1 mM EDTA, 5 mM MgCl2, pH 7.4, 100 μM DTT). The EC50, IC50 and Emax of the compounds of the invention are evaluated from 10-point dose-response curves (three fold concentration range) done in 60 μl in 384-well non-specific binding surface plate (Corning). Ten microliters from the dose-response curves plate (5× concentration) are transferred to another 384 well plate containing 25 μl of the following: 5 μg of hM2 membranes, 500 μg of Flashblue beads (Perkin-Elmer) and GDP 25 μM. An additional 15 μl containing 3.3× (60,000 dpm) of GTPγ^35S (0.4 nM final) are added to the wells resulting in a total well volume of 50 μl. Basal and maximal stimulated [^35S]GTPγS binding are determined in absence and presence of 30 μM final of acetylcholine agonist. The membranes/beads mix are pre-incubated for 15 minutes at room temperature with 25 μM GDP prior to distribution in plates (12.5 μM final). The reversal of acetylcholine-induced stimulation (2 μM final) of [^35S]GTPγS binding is used to assay the antagonist properties (IC50) of the compounds. The plates are incubated for 60 minutes at room temperature then centrifuged at 400 rpm for 5 minutes. The radioactivity (cpm) is counted in a Trilux (Perkin-Elmer).
Values of EC50, IC50 and Emax are obtained using sigmoidal fits of a non-linear curve-fitting program (XLfit version 4.2.2 Excel add-in version 4.2.2 build 18 math 1Q version 2.1.2 build 18) of percent stimulated [^35S]GTPγS binding vs. log(molar ligand). All pEC50 and plC50 values are reported as arithmetic means ±standard error of mean of ‘n’ independent experiments.

In order of rising EC50:
1. CCOC(=O)N1CCC(C)(N2CCC(n3c(=O)[nH]c4cc(F)c(C)cc43)CC2)C1 (single isomer, unassigned) [Example 56, ethyl 3-(4-(5-fluoro-6-methyl-2-oxo-2,3-dihydro-1H-benzo[d]imidazol-1-yl)piperidin-1-yl)-3-methylpyrrolidine-1-carboxylate]  0.024 µM
2. C#CCOC(=O)N1CCC(C)(N2CCC(n3c(=O)[nH]c4cc(C)ccc43)CC2)C1 (single isomer, unassigned) [Example 44, prop-2-ynyl 3-methyl-3-(4-(5-methyl-2-oxo-2,3-dihydro-1H-benzo[d]imidazol-1-yl)piperidin-1-yl)pyrrolidine-1-carboxylate]  0.026 µM
3. C#CCOC(=O)N1CCC(C)(N2CCC(n3c(=O)[nH]c4ccc(C)cc43)CC2)C1 (single isomer, unassigned) [Example 43, prop-2-ynyl 3-methyl-3-(4-(6-methyl-2-oxo-2,3-dihydro-1H-benzo[d]imidazol-1-yl)piperidin-1-yl)pyrrolidine-1-carboxylate]  0.109 µM
4. COC(=O)N1CCC(C)(N2CCC(n3c(=O)[nH]c4ccc(C)cc43)CC2)C1 (single isomer, unassigned) [Example 47, methyl 3-methyl-3-(4-(6-methyl-2-oxo-2,3-dihydro-1H-benzo[d]imidazol-1-yl)piperidin-1-yl)pyrrolidine-1-carboxylate]  0.127 µM
5. CCOC(=O)N1CCC(C)(N2CCC(n3c(=O)[nH]c4cc(F)c(C)cc43)CC2)C1 (single isomer, unassigned) [Example 55, ethyl 3-(4-(5-fluoro-6-methyl-2-oxo-2,3-dihydro-1H-benzo[d]imidazol-1-yl)piperidin-1-yl)-3-methylpyrrolidine-1-carboxylate]  0.319 µM
6. CCOC(=O)N1CCC(C)(N2CCC(n3c(=O)[nH]c4cc(F)c(F)cc43)CC2)C1 (single isomer, unassigned) [Example 57, ethyl 3-(4-(5,6-difluoro-2-oxo-2,3-dihydro-1H-benzo[d]imidazol-1-yl)piperidin-1-yl)-3-methylpyrrolidine-1-carboxylate]  0.428 µM
7. CCOC(=O)N1CCC(C)(N2CCC(N3C(=O)Cc4ccc(C)cc43)CC2)C1 (single isomer, unassigned) [Example 70, ethyl 3-methyl-3-(4-(6-methyl-2-oxoindolin-1-yl)piperidin-1-yl)pyrrolidine-1-carboxylate]  0.448 µM
8. CCOC(=O)N1CCC(C)(N2CCC(n3c(=O)[nH]c4ccc(F)cc43)CC2)C1 (single isomer, unassigned) [Example 50, ethyl 3-(4-(6-fluoro-2-oxo-2,3-dihydro-1H-benzo[d]imidazol-1-yl)piperidin-1-yl)-3-methylpyrrolidine-1-carboxylate]  0.498 µM
9. COC(=O)N1CCC(C)(N2CCC(n3c(=O)[nH]c4cc(C)ccc43)CC2)C1 (single isomer, unassigned) [Example 48, methyl 3-methyl-3-(4-(5-methyl-2-oxo-2,3-dihydro-1H-benzo[d]imidazol-1-yl)piperidin-1-yl)pyrrolidine-1-carboxylate]  0.571 µM
10. CCOC(=O)N1CCC(C)(N2CCC(N3C(=O)Cc4ccccc43)CC2)C1 (single isomer, unassigned) [Example 72, ethyl 3-methyl-3-(4-(2-oxoindolin-1-yl)piperidin-1-yl)pyrrolidine-1-carboxylate]  0.95 µM
11. COC(=O)N1CCC(C)(N2CCC(n3c(=O)[nH]c4cc(F)c(F)cc43)CC2)C1 (single isomer, unassigned) [Example 60, methyl 3-(4-(5,6-difluoro-2-oxo-2,3-dihydro-1H-benzo[d]imidazol-1-yl)piperidin-1-yl)-3-methylpyrrolidine-1-carboxylate]  1.03 µM
12. COC(=O)N1CCC(C)(N2CCC(N3C(=O)Cc4ccc(C)cc43)CC2)C1 (single isomer, unassigned) [Example 68, methyl 3-methyl-3-(4-(6-methyl-2-oxoindolin-1-yl)piperidin-1-yl)pyrrolidine-1-carboxylate]  1.15 µM
13. COC(=O)N1CCC(C)(N2CCC(n3c(=O)[nH]c4ccc(F)cc43)CC2)C1 (single isomer, unassigned) [Example 52, methyl 3-(4-(6-fluoro-2-oxo-2,3-dihydro-1H-benzo[d]imidazol-1-yl)piperidin-1-yl)-3-methylpyrrolidine-1-carboxylate]  1.24 µM
14. CCOC(=O)N1CCC(C)(N2CCC(N3C(=O)Cc4ccc(F)cc43)CC2)C1 (single isomer, unassigned) [Example 74, ethyl 3-(4-(6-fluoro-2-oxoindolin-1-yl)piperidin-1-yl)-3-methylpyrrolidine-1-carboxylate]  1.34 µM
15. CC1(N2CCC(n3c(=O)[nH]c4ccc(F)cc43)CC2)CCN(C(=O)OCCF)C1 (single isomer, unassigned) [Example 53, 2-fluoroethyl 3-(4-(6-fluoro-2-oxo-2,3-dihydro-1H-benzo[d]imidazol-1-yl)piperidin-1-yl)-3-methylpyrrolidine-1-carboxylate]  1.62 µM
16. COC(=O)N1CCC(C)(N2CCC(n3c(=O)[nH]c4ccc(C)cc43)CC2)C1 (single isomer, unassigned) [Example 45, methyl 3-methyl-3-(4-(6-methyl-2-oxo-2,3-dihydro-1H-benzo[d]imidazol-1-yl)piperidin-1-yl)pyrrolidine-1-carboxylate]  1.64 µM
17. CC1(N2CCC(n3c(=O)[nH]c4cc(F)c(F)cc43)CC2)CCN(C(=O)OCCF)C1 (single isomer, unassigned) [Example 61, 2-fluoroethyl 3-(4-(5,6-difluoro-2-oxo-2,3-dihydro-1H-benzo[d]imidazol-1-yl)piperidin-1-yl)-3-methylpyrrolidine-1-carboxylate]  1.71 µM
18. CCOC(=O)N1CCC(C)(N2CCC(N3C(=O)Cc4ccc(C)cc43)CC2)C1 (single isomer, unassigned) [Example 69, ethyl 3-methyl-3-(4-(6-methyl-2-oxoindolin-1-yl)piperidin-1-yl)pyrrolidine-1-carboxylate]  1.86 µM
19. CCOC(=O)N1CCC(C)(N2CCC(n3c(=O)[nH]c4cc(F)c(F)cc43)CC2)C1 (single isomer, unassigned) [Example 58, ethyl 3-(4-(5,6-difluoro-2-oxo-2,3-dihydro-1H-benzo[d]imidazol-1-yl)piperidin-1-yl)-3-methylpyrrolidine-1-carboxylate]  2.1 µM
20. C#CCOC(=O)N1CCC(C)(N2CCC(n3c(=O)[nH]c4ccc(C)cc43)CC2)C1 (single isomer, unassigned) [Example 41, prop-2-ynyl 3-methyl-3-(4-(6-methyl-2-oxo-2,3-dihydro-1H-benzo[d]imidazol-1-yl)piperidin-1-yl)pyrrolidine-1-carboxylate]  2.21 µM
21. CCOC(=O)N1CCC(C)(N2CCC(N3C(=O)Cc4ccc(F)cc43)CC2)C1 (single isomer, unassigned) [Example 75, ethyl 3-(4-(6-fluoro-2-oxoindolin-1-yl)piperidin-1-yl)-3-methylpyrrolidine-1-carboxylate]  2.62 µM
22. CCOC(=O)N1CCC(C)(N2CCC(n3c(=O)[nH]c4ccc(F)cc43)CC2)C1 (single isomer, unassigned) [Example 49, ethyl 3-(4-(6-fluoro-2-oxo-2,3-dihydro-1H-benzo[d]imidazol-1-yl)piperidin-1-yl)-3-methylpyrrolidine-1-carboxylate]  4.55 µM
23. COC(=O)N1CCC(C)(N2CCC(N3C(=O)Cc4ccc(C)cc43)CC2)C1 (single isomer, unassigned) [Example 67, methyl 3-methyl-3-(4-(6-methyl-2-oxoindolin-1-yl)piperidin-1-yl)pyrrolidine-1-carboxylate]  4.65 µM
24. CCOC(=O)N1CCC(C)(N2CCC(N3C(=O)Cc4ccccc43)CC2)C1 (single isomer, unassigned) [Example 73, ethyl 3-methyl-3-(4-(2-oxoindolin-1-yl)piperidin-1-yl)pyrrolidine-1-carboxylate]  6.16 µM
